Data on four molecules can be found in patent publication US12180187B2, “1-phenyl-5-azinylpyrazolyl-3-oxyalkyl acids and their use for controlling unwanted plant growth” (BAYER AKTIENGESELLSCHAFT, priority 2019, dated 2024).

In assay [1] the test system is DIGSA. The assay is described as follows: Pre-emergence action against DIGSA, 1280 g/ha. The format is in vivo, Digitaria sanguinalis. Particulars: visual scoring after about 3 weeks vs untreated controls, 100% = plants have died, 0% = like control plants. Summed up: (§1)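 Soil-surface application after sowing, before emergence: WP or EC formulations in water with 0.5% additive, 600 litres per hectare, onto sandy loam pots. Damage rated visually in % relative to untreated plants after roughly 3 weeks in a greenhouse.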

Assay [2] has as its system LOLRI. The assay is described as follows: Pre-emergence action against LOLRI, 1280 g/ha. It is filed as in vivo, Lolium rigidum. The note with it: visual scoring after about 3 weeks vs untreated controls, 100% = plants have died, 0% = like control plants. Summed up: as §1
For assay [3], the system named is VERPE. Kind of assay: Pre-emergence action against VERPE, 1280 g/ha. The format is in vivo, Veronica persica. Particulars: scored visually after about 3 weeks vs untreated controls (100% = plants have died). Summed up:
as §1

Assay [4] deals with AVEFA. The assay is described as follows: Pre-emergence action at 320 g/ha against AVEFA. Particulars: visual scoring after about 3 weeks vs untreated controls. It is filed as in vivo. Summed up: (§2)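 Effect rated visually (% vs untreated control) about 3 weeks after pre-emergence spraying of WP/EC formulation onto soil; spray carried 0.5% additive at 600 l/ha water.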
For assay [5], the system named is LOLRI. The assay is described as follows: Pre-emergence action at 320 g/ha against LOLRI. The format is in vivo, Lolium rigidum. The note with it: visual scoring after about 3 weeks vs untreated controls. Summed up: as §2
Assay [6] relates to VERPE. The assay is described as follows: Pre-emergence action at 320 g/ha against VERPE. It is filed as in vivo, Veronica persica. Particulars: visual scoring after about 3 weeks vs untreated controls. Summed up:
as §2

The test system of assay [7] is ALOMY. The assay is described as follows: Post-emergence action against ALOMY, 1.28 kg/ha. The format is in vivo, Alopecurus myosuroides. Particulars: dosage 1280 g/ha, visual rating about 3 weeks after treatment vs untreated controls. Summed up: (§3)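 Herbicidal action is estimated by eye after about three weeks under optimum greenhouse conditions, on a 0–100% scale against untreated plants. Compounds are applied post-emergence to one-leaf-stage weeds as aqueous WP or EC preparations containing 0.5% additive, sprayed at 600 L/ha.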

In assay [8] the test system is STEME. Kind of assay: Post-emergence action against STEME, 1.28 kg/ha. It is filed as in vivo, Stellaria media. The note with it: dosage 1280 g/ha, visual rating about 3 weeks after treatment vs untreated controls (100% = plants died). Summed up:
as §3

The test system of assay [9] is VERPE. Kind of assay: Post-emergence action against VERPE, 1.28 kg/ha. It is filed as in vivo, Veronica persica. The note with it: dosage 1280 g/ha, visual rating about 3 weeks after treatment vs untreated controls (100% = plants died). Summed up: as §3
Assay [10] has as its system ALOMY. The assay is described as follows: Post-emergence action against ALOMY, 320 g/ha. It is filed as in vivo, Alopecurus myosuroides. The note with it: dosage 320 g/ha, visual rating about 3 weeks after treatment vs untreated controls (100% = plants died). Summed up: (§4)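 Greenhouse pot plants in sandy loam received a foliar spray of WP- or EC-formulated compound at the one-leaf stage. Percent activity against untreated controls was assessed visually around three weeks later.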

In assay [11] the test system is AMARE. The assay is described as follows: Post-emergence action at 320 g/ha against AMARE. Particulars: visual rating about 3 weeks after treatment vs untreated controls. It is filed as in vivo, Amaranthus retroflexus. An excerpt:
Accordingly, the compounds of the invention have good herbicidal action against a broad spectrum of weed grasses and broad-leaved weeds and are therefore suitable for controlling unwanted vegetation by the post-emergence method. • b) Seeds of monocotyledonous and dicotyledonous weeds and crop plants are placed in sandy loam in plastic or organic planting pots, covered with soil and cultivated in a greenhouse under controlled growth conditions. 2 to 3 weeks after sowing, the test plants are treated at the one-leaf stage. The compounds of the invention, formulated in the form of wettable powders (WP) or as emulsion concentrates (EC), are then sprayed onto the green parts of the plants as aqueous suspension or emulsion with addition of 0.5% additive at a water application rate of 600 l/ha (converted). After the test plants have been kept in the greenhouse under optimum growth conditions for about 3 weeks, the activity of the preparations is rated visually in comparison to untreated controls. For example, 100% activity=the plants have died, 0% activity=like control plants. Tables 39 to 49 below show the effects of selected compounds of the general formula (I) according to Tables 1 and 2 on various harmful plants and at an application rate corresponding to 320 g/ha, which were obtained by the experimental procedure mentioned above.

The subject of assay [12] is ABUTH. Kind of assay: Pre-emergence action against ABUTH, 1280 g/ha. Particulars: scored visually after about 3 weeks vs untreated controls (100% = plants have died). The format is in vivo, Abutilon theophrasti. Summed up:
as §1

The test system of assay [13] is DIGSA. Kind of assay: Post-emergence action against DIGSA, 1.28 kg/ha. It is filed as in vivo, Digitaria sanguinalis. Particulars: dosage 1280 g/ha, visual rating about 3 weeks after treatment vs untreated controls. Summed up:
as §3

Assay [14] concerns MATIN. Kind of assay: Post-emergence action against MATIN, 1.28 kg/ha. The format is in vivo, Tripleurospermum inodorum (Matricaria inodora). The note with it: dosage 1280 g/ha, visual rating about 3 weeks after treatment vs untreated controls (100% = plants died). Summed up:
as §3

For assay [15], the system named is SETVI. The assay is described as follows: Post-emergence action against SETVI, 1.28 kg/ha. It is filed as in vivo, Setaria viridis. Particulars: dosage 1280 g/ha, visual rating about 3 weeks after treatment vs untreated controls. Summed up:
as §3

The test system of assay [16] is PHBPU. Kind of assay: Post-emergence action at 320 g/ha against PHBPU. The format is in vivo. The note with it: visual rating about 3 weeks after treatment vs untreated controls. Summed up: as §4

Regarding `COC(=O)C(C)Oc1nn(-c2ccccc2)c(-c2ccc(F)nc2)c1Br` (stereo not drawn) [VII-014], in [1], the “Pre-emergence action against DIGSA” value is given as 100%. Also, the “Pre-emergence action against LOLRI” value in [2] was found to be 100%. In addition, the “Pre-emergence action against VERPE” value in [3] came to 90%. Besides, in assay [4], the “Pre-emergence action against AVEFA in %” value stood at 90%. The “Pre-emergence action against LOLRI in %” value in assay [5] is 100%. Moreover, in [6], the “Pre-emergence action against VERPE in %” value was 100%. Also, the “Post-emergence action against ALOMY” value is given as 100% in assay [7] and 90% in assay [10]. The “Post-emergence action against STEME” value in [8] stood at 90%. In [9], the “Post-emergence action against VERPE” value came to 90%. Besides, the “Post-emergence action against AMARE in %” value in assay [11] was determined as 90%.
For `COC(=O)C(C)Oc1nn(-c2ccccc2)c(-c2ccc(F)nc2)c1Br` (stereo not drawn) [VII-026], the “Pre-emergence action against DIGSA” value in [1] amounted to 100%. Moreover, the “Pre-emergence action against LOLRI” value in [2] came out at 90%. In addition, the “Pre-emergence action against ABUTH” value in assay [12] is 90%. Further, in [3], the “Pre-emergence action against VERPE” value came out at 100%. The “Pre-emergence action against LOLRI in %” value in [5] was 80%. Besides, the “Pre-emergence action against VERPE in %” value in [6] is 80%. The “Post-emergence action against ALOMY” value in assay [7] and in assay [10] was 100% each time. Besides, in [13], the “Post-emergence action against DIGSA” value is listed as 100%. In addition, in assay [14], the “Post-emergence action against MATIN” value turned out to be 90%. Also, in [8], the “Post-emergence action against STEME” value came to 100%. In [9], the “Post-emergence action against VERPE” value turned out to be 100%. Moreover, the “Post-emergence action against AMARE in %” value in assay [11] stood at 90%.
Consider `CCOC(=O)COc1nn(-c2ccccc2F)c(-c2ccc(F)nc2)c1I` [VII-036], for which the “Pre-emergence action against DIGSA” value in assay [1] stood at 100%. For the same molecule, the “Pre-emergence action against LOLRI” value in assay [2] is on record as 100%. The “Pre-emergence action against ABUTH” value in assay [12] is 90%. For the same molecule, the “Pre-emergence action against VERPE” value in assay [3] is on record as 100%. For the same molecule, the “Pre-emergence action against VERPE in %” value in [6] is recorded as 100%. For the same molecule, the “Post-emergence action against ALOMY” value in [7] was determined as 100%; in [10], 90%. Further, the “Post-emergence action against DIGSA” value in assay [13] is listed as 100%. In addition, the “Post-emergence action against SETVI” value in assay [15] is listed as 90%. Besides, in assay [14], the “Post-emergence action against MATIN” value is recorded as 100%. Also, the “Post-emergence action against STEME” value in [8] came to 100%. Also, in [9], the “Post-emergence action against VERPE” value amounted to 100%. Besides, in assay [16], the “Post-emergence action against PHBPU in %” value is reported as 80%.
On to `O=C(O)COc1nn(-c2ccccc2F)c(-c2ccc(F)nc2)c1I` [VII-037], for which the “Pre-emergence action against DIGSA” value in assay [1] came to 100%. Also, in assay [2], the “Pre-emergence action against LOLRI” value turned out to be 100%. In addition, in assay [3], the “Pre-emergence action against VERPE” value worked out at 100%. The “Pre-emergence action against AVEFA in %” value in assay [4] amounted to 90%. For the same molecule, the “Pre-emergence action against LOLRI in %” value in assay [5] is recorded as 100%. Besides, in [6], the “Pre-emergence action against VERPE in %” value was determined as 100%. Moreover, the “Post-emergence action against ALOMY” value in [7] and in assay [10] was 100% throughout. Also, the “Post-emergence action against DIGSA” value in assay [13] is 90%. The “Post-emergence action against SETVI” value in assay [15] turned out to be 90%. Moreover, the “Post-emergence action against MATIN” value in assay [14] is 90%. Moreover, in assay [8], the “Post-emergence action against STEME” value was 100%. Moreover, the “Post-emergence action against VERPE” value in [9] amounted to 100%. Moreover, the “Post-emergence action against PHBPU in %” value in [16] is reported as 80%.
